# From patent US10039753B2, “Imidazo[4,5-c]quinoline and imidazo[4,5-c][1,5]naphthyridine derivatives as LRRK2 inhibitors” (Pfizer Inc., priority 2015, dated 2018)
# pIC50: −log10 of the molar value. Structures can show the parent of a compound that is named as a salt.
# Legend:
# [1] = target: T1, GST-tagged truncated LRRK2 (Homo sapiens, UniProt Q5S007); assay: LRRK2 Assay, Format 2 (Lantha Screen), WT; format: biochemical; settings: geometric mean of 2-4 determinations unless otherwise indicated (a: >=5; b: single determination)
# T1 construct: GST-tagged truncated LRRK2 from Invitrogen (Cat # PV4874); GST; purchased Invitrogen PV4874
# mutant G2019S LRRK2 = mutant G2019S LRRK2 (Homo sapiens, UniProt Q5S007, G2019S); assay: LRRK2 Assay, Format 2 (Lantha Screen), G2019S mutant; format: biochemical; set-up: purchased Invitrogen PV4881; settings: geometric mean of 2-4 determinations unless otherwise indicated (a: >=5; b: single determination); read-out: LRRK2, Format 2 G2019S IC50
# Chain of mutant G2019S LRRK2 (Q5S007 970-2527 G2019S limits assumed): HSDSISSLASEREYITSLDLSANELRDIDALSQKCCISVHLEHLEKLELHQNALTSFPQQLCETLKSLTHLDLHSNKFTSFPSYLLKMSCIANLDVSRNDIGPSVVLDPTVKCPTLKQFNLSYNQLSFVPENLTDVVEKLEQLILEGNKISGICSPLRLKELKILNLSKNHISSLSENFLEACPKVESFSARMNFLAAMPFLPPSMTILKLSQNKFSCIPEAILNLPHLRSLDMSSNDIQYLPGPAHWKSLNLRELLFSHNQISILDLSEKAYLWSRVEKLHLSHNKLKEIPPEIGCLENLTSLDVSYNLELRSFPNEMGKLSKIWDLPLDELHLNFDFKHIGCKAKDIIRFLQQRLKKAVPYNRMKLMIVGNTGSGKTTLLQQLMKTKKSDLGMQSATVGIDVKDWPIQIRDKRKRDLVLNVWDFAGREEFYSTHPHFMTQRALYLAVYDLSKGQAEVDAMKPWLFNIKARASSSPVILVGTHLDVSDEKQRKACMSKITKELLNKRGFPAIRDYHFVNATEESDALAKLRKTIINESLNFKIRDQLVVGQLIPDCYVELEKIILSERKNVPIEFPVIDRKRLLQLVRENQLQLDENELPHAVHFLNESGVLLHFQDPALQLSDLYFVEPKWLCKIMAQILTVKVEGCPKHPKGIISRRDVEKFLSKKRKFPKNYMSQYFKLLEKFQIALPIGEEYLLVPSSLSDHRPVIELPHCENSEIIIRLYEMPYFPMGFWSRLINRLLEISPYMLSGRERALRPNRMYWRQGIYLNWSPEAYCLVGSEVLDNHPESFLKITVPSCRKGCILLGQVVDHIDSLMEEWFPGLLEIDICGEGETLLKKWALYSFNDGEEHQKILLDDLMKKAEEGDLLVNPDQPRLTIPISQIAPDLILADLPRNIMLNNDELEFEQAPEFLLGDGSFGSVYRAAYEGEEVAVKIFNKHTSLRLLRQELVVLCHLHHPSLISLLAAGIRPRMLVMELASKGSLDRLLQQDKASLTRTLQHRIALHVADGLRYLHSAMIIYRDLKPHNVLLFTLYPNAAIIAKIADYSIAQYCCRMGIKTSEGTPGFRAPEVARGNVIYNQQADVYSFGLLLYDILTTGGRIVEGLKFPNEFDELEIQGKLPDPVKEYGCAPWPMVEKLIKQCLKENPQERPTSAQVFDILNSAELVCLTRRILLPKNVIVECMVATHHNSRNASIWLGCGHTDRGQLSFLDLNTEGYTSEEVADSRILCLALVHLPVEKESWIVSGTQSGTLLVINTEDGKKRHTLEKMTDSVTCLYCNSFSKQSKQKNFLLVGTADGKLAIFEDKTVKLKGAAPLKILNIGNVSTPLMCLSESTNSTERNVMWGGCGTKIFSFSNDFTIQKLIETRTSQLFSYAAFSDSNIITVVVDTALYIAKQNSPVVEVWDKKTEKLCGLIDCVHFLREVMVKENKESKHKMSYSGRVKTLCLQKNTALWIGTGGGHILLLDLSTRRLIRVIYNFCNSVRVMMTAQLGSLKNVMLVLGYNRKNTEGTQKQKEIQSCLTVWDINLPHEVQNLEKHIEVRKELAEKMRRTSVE
# T1 sequence (Q5S007 970-2527 limits assumed): as the sequence (Q5S007 970-2527 G2019S limits assumed) above, with S1050G counted along it
pIC50 [1],pIC50 (mutant G2019S LRRK2),SMILES
7.84,7.73,"Cc1cc(Cc2nc3cnc4ccc(C#N)cc4c3n2[C@H]2CCC[C@H]2F)no1 (racemic) [Example 245, 1-(cis-2-fluorocyclopentyl)-2-[(5-methyl-1,2-oxazol-3-yl)methyl]-1H-imidazo[4,5-c]quinoline-8-carbonitrile, formate salt]"
7.66,7.59,"Cc1cnn(Cc2nc3cnc4ccc(C#N)cc4c3n2[C@H]2CC[C@@H](F)C2)c1 (single isomer, unassigned) [Example C58, 1-[cis-3-fluorocyclopentyl]-2-[(4-methyl-1H-pyrazol-1-yl)methyl]-1H-imidazo[4,5-c]quinoline-8-carbonitrile]"
7.77,7.71,"C[C@@H]1C[C@H](n2c(CC#N)nc3cnc4ccc(C#N)cc4c32)CCO1 [Example 117, 2-(cyanomethyl)-1-[(2R,4R)-2-methyltetrahydro-2H-pyran-4-yl]-1H-imidazo[4,5-c]quinoline-8-carbonitrile]"
8.24,8.29,"C[C@@H]1C[C@H](n2c(Cn3cncn3)nc3cnc4ccc(C#N)cc4c32)CCO1 [Example 120, 1-[(2R,4R)-2-methyltetrahydro-2H-pyran-4-yl]-2-(1H-1,2,4-triazol-1-ylmethyl)-1H-imidazo[4,5-c]quinoline-8-carbonitrile, formate salt]"
7.98,8.02,"Cc1nnn(Cc2nc3cnc4ccc(Cl)cc4c3n2[C@@H]2CCO[C@H](C)C2)n1 [Example 206, 8-chloro-1-[(2R,4R)-2-methyltetrahydro-2H-pyran-4-yl]-2-[(5-methyl-2H-tetrazol-2-yl)methyl]-1H-imidazo[4,5-c]quinoline]"
7.89,7.73,"N#Cc1ccc2ncc3nc(Cc4cc(C(F)(F)F)on4)n([C@@H]4CC[C@H](F)C4)c3c2c1 (single isomer, unassigned; ent-1) [Example 211, 1-(cis-3-fluorocyclopentyl)-2-{[5-(trifluoromethyl)-1,2-oxazol-3-yl]methyl}-1H-imidazo[4,5-c]quinoline-8-carbonitrile, ENT-1]"
8.44,8.26,"Cc1nn2cc(Cc3nc4cnc5ccc(C#N)cc5c4n3[C@@H]3CC[C@H](F)C3)nc2s1 (single isomer, unassigned; ent-2) [Example 169, 1-(cis-3-fluorocyclopentyl)-2-[(2-methylimidazo[2,1-b][1,3,4]thiadiazol-6-yl)methyl]-1H-imidazo[4,5-c]quinoline-8-carbonitrile, ENT-2]"
8.21,8.27,"C[C@@H]1C[C@H](n2c(Cn3cnnn3)nc3cnc4ccc(C#N)cc4c32)CCO1 [Example 124, 1-[(2R,4R)-2-methyltetrahydro-2H-pyran-4-yl]-2-(1H-tetrazol-1-ylmethyl)-1H-imidazo[4,5-c]quinoline-8-carbonitrile, formate salt]"
7.60,7.39,"Cc1cc(Cc2nc3cnc4ccc(C#N)cc4c3n2C2CCCC2)no1 [Example 152, 1-cyclopentyl-2-[(5-methyl-1,2-oxazol-3-yl)methyl]-1H-imidazo[4,5-c]quinoline-8-carbonitrile, formate salt]"
8.13,7.94,"Cc1nn2cc(Cc3nc4cnc5ccc(C#N)cc5c4n3[C@@H]3CC[C@H](F)C3)nc2s1 (single isomer, unassigned; ent-1) [Example 168, 1-(cis-3-fluorocyclopentyl)-2-[(2-methylimidazo[2,1-b][1,3,4]thiadiazol-6-yl)methyl]-1H-imidazo[4,5-c]quinoline-8-carbonitrile, ENT-1]"
7.67,7.49,"Cc1cc(Cc2nc3cnc4ccc(C#N)cc4c3n2[C@H]2CCN(C)C2)no1 [Example 218, 2-[(5-methyl-1,2-oxazol-3-yl)methyl]-1-[(3S)-1-methylpyrrolidin-3-yl]-1H-imidazo[4,5-c]quinoline-8-carbonitrile, formate salt]"
8.47,8.15,"Cc1cc(Cc2nc3cnc4ccc(C#N)cc4c3n2[C@@H]2CCN(C)C2)no1 [Example 213, 2-[(5-methyl-1,2-oxazol-3-yl)methyl]-1-[(3R)-1-methylpyrrolidin-3-yl]-1H-imidazo[4,5-c]quinoline-8-carbonitrile, formate salt]"
7.91,7.79,"N#Cc1ccc2ncc3nc(Cc4cscn4)n([C@@H]4CC[C@H](F)C4)c3c2c1 (single isomer, unassigned; ent-1) [Example 203, 1-(cis-3-fluorocyclopentyl)-2-(1,3-thiazol-4-ylmethyl)-1H-imidazo[4,5-c]quinoline-8-carbonitrile, ENT-1]"
8.15,8.21,"C[C@@H]1C[C@H](n2c(Cn3cc(C4CC4)nn3)nc3cnc4ccc(C#N)cc4c32)CCO1 [Example 125, 2-[(4-cyclopropyl-1H-1,2,3-triazol-1-yl)methyl]-1-[(2R,4R)-2-methyltetrahydro-2H-pyran-4-yl]-1H-imidazo[4,5-c]quinoline-8-carbonitrile, formate salt]"
8.12,8.21,"C[C@@H]1C[C@H](n2c(Cc3cnccn3)nc3cnc4ccc(C#N)cc4c32)CCO1 [Example 98, 1-[(2R,4R)-2-Methyltetrahydro-2H-pyran-4-yl]-2-(pyrazin-2-ylmethyl)-1H-imidazo[4,5-c]quinoline-8-carbonitrile, formate salt]"
7.94,8.07,"Cc1nc(Cc2nc3cnc4ccc(C#N)cc4c3n2[C@@H]2CCO[C@H](C)C2)c(C)o1 [Example 230, 2-[(2,5-dimethyl-1,3-oxazol-4-yl)methyl]-1-[(2R,4R)-2-methyltetrahydro-2H-pyran-4-yl]-1H-imidazo[4,5-c]quinoline-8-carbonitrile, formate salt]"
7.33,7.16,"Cc1cc(Cc2nc3cnc4ccc(C#N)cc4c3n2CC(F)F)no1 [Example 228, 1-(2,2-difluoroethyl)-2-[(5-methyl-1,2-oxazol-3-yl)methyl]-1H-imidazo[4,5-c]quinoline-8-carbonitrile]"
7.77,7.73,"C[C@@H]1C[C@H](n2c(Cc3cnccn3)nc3cnc4ccc(Cl)cc4c32)CCO1 [Example 249, 8-chloro-1-[(2R,4R)-2-methyltetrahydro-2H-pyran-4-yl]-2-(pyrazin-2-ylmethyl)-1H-imidazo[4,5-c]quinoline, trifluoroacetate salt]"
8.15,8.12,"COc1cnn(Cc2nc3cnc4ccc(C#N)cc4c3n2CC(C)(F)F)c1 [Example 210, 1-(2,2-difluoropropyl)-2-[(4-methoxy-1H-pyrazol-1-yl)methyl]-1H-imidazo[4,5-c]quinoline-8-carbonitrile]"
8.07,8.14,"Cc1ccc(Cc2nc3cnc4ccc(C#N)cc4c3n2[C@@H]2CCO[C@H](C)C2)nc1 [Example 232, 2-[(5-methylpyridin-2-yl)methyl]-1-[(2R,4R)-2-methyltetrahydro-2H-pyran-4-yl]-1H-imidazo[4,5-c]quinoline-8-carbonitrile]"
8.15,8.10,"C[C@@H]1C[C@H](n2c(Cc3cnco3)nc3cnc4ccc(Cl)cc4c32)CCO1 [Example 127, 8-chloro-1-[(2R,4R)-2-methyltetrahydro-2H-pyran-4-yl]-2-(1,3-oxazol-5-ylmethyl)-1H-imidazo[4,5-c]quinoline, formate salt]"
6.91,6.92,"Cc1cc(Cc2nc3cnc4ccc(C#N)cc4c3n2[C@H]2CCCC[C@H]2O)no1 (racemic) [Example 242, 1-(cis-2-hydroxycyclohexyl)-2-[(5-methyl-1,2-oxazol-3-yl)methyl]-1H-imidazo[4,5-c]quinoline-8-carbonitrile, formate salt]"
8.25,8.09,"Cc1cn(Cc2nc3cnc4ccc(Cl)cc4c3n2[C@H]2CC[C@@H](F)C2)nn1 (single isomer, unassigned) [Example 93, 8-Chloro-1-(cis-3-fluorocyclopentyl)-2-[(4-methyl-1H-1,2,3-triazol-1-yl)methyl]-1H-imidazo[4,5-c]quinoline]"
7.58,7.41,"Cc1cc(Cc2nc3cnc4ccc(C#N)cc4c3n2C2CCC2)no1 [Example 216, 1-cyclobutyl-2-[(5-methyl-1,2-oxazol-3-yl)methyl]-1H-imidazo[4,5-c]quinoline-8-carbonitrile, formate salt]"
7.58,7.58,"Cc1cnn(Cc2nc3cnc4ccc(C#N)cc4c3n2[C@H]2CCN(C)C2)c1 [Example 190, 2-[(4-methyl-1H-pyrazol-1-yl)methyl]-1-[(3S)-1-methylpyrrolidin-3-yl]-1H-imidazo[4,5-c]quinoline-8-carbonitrile]"
7.93,8.05,"Cc1nc(Cc2nc3cnc4ccc(C#N)cc4c3n2[C@@H]2CCO[C@H](C)C2)c(C2CC2)o1 [Example 155, 2-[(5-cyclopropyl-2-methyl-1,3-oxazol-4-yl)methyl]-1-[(2R,4R)-2-methyltetrahydro-2H-pyran-4-yl]-1H-imidazo[4,5-c]quinoline-8-carbonitrile, formate salt]"
8.23,8.21,"C[C@@H]1C[C@H](n2c(Cc3cc(=O)n4ccccc4n3)nc3cnc4ccc(Cl)cc4c32)CCO1 [Example 164, 2-({8-chloro-1-[(2R,4R)-2-methyltetrahydro-2H-pyran-4-yl]-1H-imidazo[4,5-c]quinolin-2-yl}methyl)-4H-pyrido[1,2-a]pyrimidin-4-one, formate salt]"
8.20,8.33,"COc1ccc(Cc2nc3cnc4ccc(C#N)cc4c3n2[C@@H]2CCO[C@H](C)C2)nc1 [Example 96, 2-[(5-Methoxypyridin-2-yl)methyl]-1-[(2R,4R)-2-methyltetrahydro-2H-pyran-4-yl]-1H-imidazo[4,5-c]quinoline-8-carbonitrile]"
